This note sets out measurements from US11370785B2, “Multicyclic compounds as farnesoid X receptor modulators” (BRISTOL-MYERS SQUIBB COMPANY, priority 2017, dated 2022).

In general, EC50 refers to the concentration that produces a half-maximal response.

One assay deals with T1, human FXR (Homo sapiens, UniProt Q96RI1).
T1 construct: expressed in transfected cells; host or cells: HEK293 cells stably carrying a 5xGal4-response-element firefly luciferase reporter, transiently transfected with the pcDNA3.1-Gal4-FXR plasmid
T1 sequence (Q96RI1 262-486 limits assumed): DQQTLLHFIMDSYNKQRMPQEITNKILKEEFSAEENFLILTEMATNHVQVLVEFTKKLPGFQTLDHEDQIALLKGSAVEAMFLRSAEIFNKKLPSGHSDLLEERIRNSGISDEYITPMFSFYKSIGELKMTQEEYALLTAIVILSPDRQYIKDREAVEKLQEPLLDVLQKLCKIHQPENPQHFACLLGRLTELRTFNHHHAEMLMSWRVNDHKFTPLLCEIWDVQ
Briefly: transient human FXR/Gal4-luciferase reporter assay. The format is cell-based. Conditions: Gal4-hFXR reporter in HEK293 cells; read-out: HLE GAL-FXR EC50. The method, then: The exemplified compounds of the present invention were tested in the transient human FXR/Gal4-luciferase reporter assay, and assay results were reported in Table 1 together with other analytical data.
A Gal4-hFXR fusion construct reporter system was used as the primary assay to characterize compound activity. A construct including 5 copies of the Gal4 promoter response element upstream of a firefly luciferase reporter cDNA was stably expressed in HEK293 cells. This reporter cell line was maintained in Dulbecco's Modified Eagle's medium (DMEM; Gibco) supplemented with 1% penicillin-streptomycin (P/S) solution, 500 μg/mL Zeocin and 10% charcoal/dextran-treated fetal bovine serum (cs-FBS) at 37° C. in a humidified 5% CO2 atmosphere. Another plasmid was constructed in which the human cytomegalovirus promoter in the pcDNA3.1 vector directs the expression of the cDNA encoding a fusion protein comprised of the DNA binding domain from the Gal4 transcription factor fused to the ligand binding domain from human FXR.
The day prior to transfection, the reporter cells in culture are detached from the plate with trypsin and plated into a T75 flask at a sufficient density to achieve approximately 90% confluence the next morning. The transfection reagents are prepared by separately diluting 25 μg of the pcDNA3.1-Gal4-FXR plasmid into 1.87 mL of Opti-MEM (Thermo-Fisher), and 40 μL of Lipofectamine 2000 (Thermo-Fisher) into 1.87 mL of Opti-MEM, and then adding the diluted DNA solution into the diluted Lipofectamine 2000 solution and incubating at room temperature for 15-20 minutes. The mixture is further diluted with 10 mL of a solution comprised of DMEM, 10% cs-FBS, and 1% P/S immediately prior to transferring to the cells. The maintenance culture media is aspirated from the cells and the final transfection mixture is added before the cells are incubated overnight at 37° C. in a humidified 5% CO2 atmosphere. This protocol can be scaled up, and the transiently transfected cells can be cryopreserved in an assay-ready format.
For compound testing, 100 nL of the compounds (serial dilutions in DMSO) are dispensed with an Echo acoustic dispenser (Labcyte) into the wells of a Corning/Costar clear bottom 384-well white plate. The transfected cells are harvested, counted, and diluted such that 10-25,000 cells in 25 μL are plated into each well of the 384-well compound assay plate. The compound-treated cells are incubated overnight at 37° C. in a humidified 5% CO2 atmosphere. The next morning 25 μL of Steady-Glo (Promega) are added to each well of the plate, the mixture is incubated for 15 min. with shaking, and luminescence is measured on an Envision (Perkin Elmer) plate reader. Background counts from cells treated with DMSO alone are subtracted from all raw counts, and the corrected values are converted to a percentage of the control response attained with 8 μM GW-4064.
With `Clc1cccc(Cl)c1-c1noc(C2CC2)c1C=C1CC2(CCN(c3ccc(-c4nn[nH]n4)cc3)CC2)C1` [Example 50, 4-((7-(4-(2H-tetrazol-5-yl)phenyl)-7-azaspiro[3.5]nonan-2-ylidene)methyl)-5-cyclopropyl-3-(2,6-dichlorophenyl)isoxazole], the EC50 is 4330 nM.

As for `O=C(O)c1cc(F)c2nc(N3CCC4(CC3)CC(=Cc3c(C5CC5)cnn3-c3c(Cl)cccc3Cl)C4)sc2c1` [Example 7, 2-(2-((4-Cyclopropyl-1-(2,6-dichlorophenyl)-1H-pyrazol-5-yl)methylene)-7-azaspiro[3.5]nonan-7-yl)-4-fluorobenzo[d]thiazole-6-carboxylic acid], the concentration for a half-maximal effect (EC50) was 201 nM.

The assay is the same for the next values; noted with them: Gal4-hFXR reporter in HEK293 cells; relative to 8 μM GW-4064; read-out: FXR EC50.
Regarding `COc1ccc(C(=O)O)c2ccc(N3CCC4(CC3)CC(=Cc3c(-c5ccccc5C(F)(F)F)noc3C3CC3)C4)nc12` [Example 117], the concentration giving a half-maximal response (EC50) amounted to 241 nM.

Take `O=C(O[C@@H]1O[C@H](C(=O)O)[C@@H](O)[C@H](O)[C@H]1O)c1cc(C(F)(F)F)c2cc(N3CCC4(CC3)CC(Cc3c(-c5ccccc5C(F)(F)F)noc3C3CC3)C4)ccc2n1` [Example 145, (2S,3S,4S,5R,6S)-6-((6-(2-((5-Cyclopropyl-3-(2-(trifluoromethyl)phenyl)isoxazol-4-yl)methyl)-7-azaspiro[3.5]nonan-7-yl)-4-(trifluoromethyl)quinoline-2-carbonyl)oxy)-3,4,5-trihydroxytetrahydro-2H-pyran-2-carboxylic acid]: the EC50 was 36 nM. As to `C=Cc1cncc(Cl)c1-c1noc(C2CC2)c1C=C1CC2(CCN(c3ccc4nc(C(=O)O)cc(C(F)(F)F)c4c3)CC2)C1` [Example 160], the EC50 was determined as 37 nM. On the same count and under the same terms, under `O=C(O)c1ccc(CN2CCC3(CC2)CC(=Cc2c(-c4c(Cl)cccc4Cl)noc2C2CC2)C3)cc1` [Example 52] stands 4320 nM. As to `O=C(O)c1cc(C(F)(F)F)c2cc(N3CCC4(CC3)CC(=Cc3c(-c5ccccc5C(F)(F)F)noc3C3CC3)C4)ccc2n1` [Example 30], the EC50 amounted to 12 nM. Regarding `O=C(O)c1cc(OC(F)F)c2cc(N3CCC4(CC3)CC(=Cc3c(-c5ccccc5C(F)(F)F)noc3C3CC3)C4)ccc2n1` [Example 86], the EC50 was determined as 10 nM. In the case of `Cc1cc(C(=O)O)nc2ccc(N3CCC4(CC3)CC(Cc3c(-c5ccccc5C(F)(F)F)noc3C3CC3)C4)cc12` [Example 78], the concentration giving a half-maximal response (EC50) was 16 nM. Regarding `O=C(O)c1cc(OC2CCCC2)c2cc(N3CCC4(CC3)CC(=Cc3c(-c5ccccc5OC(F)(F)F)noc3C3CC3)C4)ccc2n1` [Example 121], the EC50 is 16 nM. On the same count and under the same terms, under `CC(O)Cc1cc(C(=O)O)nc2ccc(N3CCC4(CC3)CC(Cc3c(-c5ccccc5C(F)(F)F)noc3C3CC3)C4)cc12` (centres unmarked) [Example 147] stands 160 nM; under `O=C(O)c1cc(OC2CCC2)c2cc(N3CCC4(CC3)CC(Cc3c(-c5ccccc5C(F)(F)F)noc3C3CC3)C4)ccc2n1` [Example 109], 33 nM.

Consider `COc1cc(C(=O)O)nc2ccc(N3CCC4(CC3)CC(=Cc3c(C(C5CC5)C5CC5)noc3C3CC3)C4)cc12` [Example 107], for which the 50% effective concentration (EC50) amounted to 1550 nM. Same read-out and setting: under `Cn1nnc(-c2ccc(N3CCC4(CC3)CC(=Cc3c(-c5c(Cl)cccc5Cl)noc3C3CC3)C4)cc2)n1` [Example 53] stands 908 nM.

Consider `O=C(O)c1ccc(N2CCC3(CC2)CC(=Cc2c(C4CC4)nnn2-c2c(Cl)cccc2Cl)C3)nc1` [Example 21], for which the concentration giving a half-maximal response (EC50) is 5280 nM. `O=C(O)c1ccc(N2CCC3(CC2)CC(=Cc2c(-c4c(Cl)cccc4Cl)cnn2C2CC2)C3)nc1` [Example 23]: the EC50 is 4640 nM. Consider `O=C(O)c1cc(C(F)(F)F)c2cc(N3CCC4(CC3)CC(=Cc3c(C(C5CC5)C5CC5)noc3C3CC3)C4)ccc2n1` [Example 106], for which the EC50 worked out at 1420 nM.

On to `O=C(O)c1cc(OCC(F)F)c2cc(N3CCC4(CC3)CC(=Cc3c(-c5ccccc5C(F)(F)F)noc3C3CC3)C4)ccc2n1` [Example 148], for which the EC50 was determined as 4 nM.

For `NC(=O)c1cc(OC2CCC2)c2cc(N3CCC4(CC3)CC(Cc3c(-c5ccccc5C(F)(F)F)noc3C3CC3)C4)ccc2n1` [Example 171], the EC50 came out at 450 nM. For the compound `C=Cc1cncc(Cl)c1-c1noc(C2CC2)c1C=C1CC2(CCN(c3nc4c(F)cc(C(=O)O)cc4s3)CC2)C1` [Example 159], the EC50 amounted to 350 nM. Still for that read-out and setting: under `COCCn1cc(C(=O)O)c2ccc(N3CCC4(CC3)CC(=Cc3c(-c5c(Cl)cccc5Cl)noc3C3CC3)C4)cc21` [Example 57] stands 19 nM; under `O=C(NC1CC1)c1cc(OC2CCC2)c2cc(N3CCC4(CC3)CC(Cc3c(-c5ccccc5C(F)(F)F)noc3C3CC3)C4)ccc2n1` [Example 173], 1370 nM; under `COc1cc(N2CCC3(CC2)CC(Cc2c(-c4c(Cl)cccc4Cl)noc2C2CC2)C3)ccc1OCC(=O)O` [Example 93], 505 nM. With `Cc1cccc(Cl)c1-c1noc(C2CC2)c1C=C1CC2(CCN(S(=O)(=O)c3cccc(C(=O)O)c3)CC2)C1` [Example 63], the EC50 was 661 nM. On the same count and under the same terms, under `CCOc1cc(C(=O)O)ncc1N1CCC2(CC1)CC(=Cc1c(-c3ccccc3C(F)(F)F)noc1C1CC1)C2` [Example 141] stands 442 nM; under `O=C(O)c1cc(C(F)(F)F)c2cc(N3CCC4(CC3)CC(=Cc3c(-c5ccccc5C(F)(F)F)noc3C(F)(F)F)C4)ccc2n1` [Example 167], 47 nM. In the case of `Cc1cc(C(=O)O)cc2sc(N3CCC4(CC3)CC(=Cc3c(C5CC5)nnn3-c3c(Cl)cccc3Cl)C4)nc12` [Example 20], the EC50 amounted to 252 nM.

With `CCN(C)C(=O)c1cc(OC2CCC2)c2cc(N3CCC4(CC3)CC(Cc3c(-c5ccccc5C(F)(F)F)noc3C3CC3)C4)ccc2n1` [Example 184], the EC50 is 37 nM. `CCOc1cc(C(=O)O)nc2ccc(N3CCC4(CC3)CC(Cc3c(-c5ccccc5C(F)(F)F)noc3C3CC3)C4)cc12` [Example 99]: the EC50 was 17 nM. On the same count and under the same terms, under `O=C(O)c1cc2ccc(N3CCC4(CC3)CC(=Cc3c(-c5c(Cl)cccc5Cl)noc3C3CC3)C4)cc2nn1` [Example 54] stands 267 nM. Consider `Cc1cccc(Cl)c1-c1noc(C2CC2)c1C=C1CC2(CCN(c3ccc4nc(C(=O)O)cc(C(F)(F)F)c4c3)CC2)C1` [Example 58], for which the concentration giving a half-maximal response (EC50) was found to be 10 nM. On to `O=C(O)c1cc(OC2CCOC2)c2cc(N3CCC4(CC3)CC(Cc3c(-c5ccccc5C(F)(F)F)noc3C3CC3)C4)ccc2n1` (centres unmarked) [Example 151], for which the EC50 was found to be 12 nM. Same read-out and setting: under `O=C(O)c1cc(OCC(F)F)c2cc(N3CCC4(CC3)CC(Cc3c(-c5ccccc5C(F)(F)F)noc3C3CC3)C4)ccc2n1` [Example 149] stands 6 nM. As to `O=C(O)c1ccc(N2CCC3(CC2)CC(Nc2c(-c4c(Cl)cccc4Cl)noc2C2CC2)C3)nn1` [Example 15], the EC50 stood at 1820 nM. On the same count and under the same terms, under `CC(=O)Nc1ncc(S(=O)(=O)N2CCC3(CC2)CC(Cc2c(-c4c(Cl)cccc4Cl)noc2C2CC2)C3)s1` [Example 176] stands 840 nM; under `COc1cc(C(=O)O)nc2ccc(N3CCC4(CC3)CC(=Cc3c(-c5c(Cl)cncc5Cl)noc3C3CC3)C4)cc12` [Example 76], 14 nM.

As to `O=C(O)c1cc(F)c2nc(N3CCC4(CC(=Cc5c(-c6c(Cl)cccc6Cl)noc5C5CC5)C4)C3)sc2c1` (centres unmarked) [Example 131], the EC50 is 72 nM.

In the case of `O=C(O)c1cc(OC2CCC2)c2cc(N3CCC4(CC3)CC(=Cc3c(-c5c(Cl)cncc5Cl)noc3C3CC3)C4)ccc2n1` [Example 124], the EC50 is 14 nM. Regarding `O=C(O)c1cc(OC2COC2)c2cc(N3CCC4(CC3)CC(=Cc3c(-c5ccccc5C(F)(F)F)noc3C3CC3)C4)ccc2n1` [Example 137], the EC50 was found to be 78 nM. As for `O=C(O)c1ccc(N2CCC3(CC(=Cc4c(-c5c(Cl)cccc5Cl)noc4C4CC4)C3)C2)nc1` (centres unmarked) [Example 132], the EC50 came to 514 nM. In the case of `Cn1cc(-c2nn[nH]n2)c2ccc(N3CCC4(CC3)CC(=Cc3c(-c5ccccc5C(F)(F)F)noc3C3CC3)C4)cc21` [Example 62], the EC50 was 54 nM.
